Reference: ChEMBL document CHEMBL6109146, “Discovery of New Pyrazolone Carbothioamide Derivatives as Potent Antifungal Agents for the Treatment of Candidiasis and Cryptococcosis” (J Med Chem, 2025)
Converted amounts (≈) assume the structure as drawn. The source made the active and inactive calls. The calls are words filed in the database; no cut-off is given here.

What was measured:
[1] = Half-life in male ICR mouse at 2 mg/kg, iv measured after 24 hrs by LC-MS/MS analysis; assay type: ADME, organism-based; settings: in vivo
[2] = AUC (0 to t) in male ICR mouse at 2 mg/kg, iv measured after 24 hrs by LC-MS/MS analysis; assay type: ADME, organism-based; settings: in vivo
[3] = Tmax in male ICR mouse at 20 mg/kg, po measured after 24 hrs by LC-MS/MS analysis; assay type: ADME, organism-based; settings: in vivo
[4] = AUC (0 to infinity) in male ICR mouse at 20 mg/kg, po measured after 24 hrs by LC-MS/MS analysis; assay type: ADME, organism-based; settings: in vivo
[Candida] auris = Antifungal activity against Candida auris 0030 assessed as inhibition of fungal growth incubated for 48 to 72 hrs by microplate reader analysis; assay type: functional, organism-based; settings: Candidozyma auris, time 48-72 hrs
Nakaseomyces glabratus [5] = experiment: Antifungal activity against Candida glabrata 8535 assessed as inhibition of fungal growth incubated for 48 to 72 hrs by microplate reader analysis; assay type: functional; settings: time 48-72 hrs
Nakaseomyces glabratus [6] = experiment: Antifungal activity against Candida glabrata 9256 assessed as inhibition of fungal growth incubated for 48 to 72 hrs by microplate reader analysis; assay type: functional; settings: time 48-72 hrs
[7] = Cytotoxicity against human L02 cells assessed as inhibition of cell proliferation incubated for 48 hrs by WST-8 reagent based assay; assay type: toxicity
Nakaseomyces glabratus [8] = experiment: Antifungal activity against Candida glabrata 0161 assessed as inhibition of fungal growth at 0.13 microg/ml incubated up to 72 hrs by microplate reader analysis relative to control; assay type: functional
Nakaseomyces glabratus [9] = experiment: Fungicidal activity against Candida glabrata 0161 incubated for 48 hrs by time-kill kinetics analysis; assay type: functional
Nakaseomyces glabratus [10] = experiment: Antifungal activity against Candida glabrata 0161 assessed as inhibition of fungal growth at 32 microg/ml incubated for 48 hrs by spot-plating assay; assay type: functional, organism-based; settings: dose 32.0 µg/ml
Nakaseomyces glabratus [11] = experiment: Antifungal activity against Candida glabrata 0161 assessed as inhibition of fungal growth at 0.5 to 32 microg/ml incubated for 48 hrs by spot-plating assay; assay type: functional, organism-based; settings: dose 0.5-32 µg/ml
Cryptococcus neoformans [12] = experiment: Antifungal activity against Cryptococcus neoformans H99 assessed as inhibition of fungal cell colony formation at 0.5 microg/ml incubated for 48 hrs by spot-plating assay; assay type: functional, organism-based; settings: dose 0.5 µg/ml
Nakaseomyces glabratus [13] = experiment: Inhibition of biofilm formation in Candida glabrata 0161 at 16 to 32 microg/ml incubated for 24 hrs by XTT reagent based assay relative to control; assay type: functional; settings: dose 16-32 µg/ml, at 16 to 32 µg/mL
Nakaseomyces glabratus [14] = experiment: Inhibition of biofilm formation in Candida glabrata 0161 at 2 to 32 microg/ml incubated for 24 hrs by XTT reagent based assay; assay type: functional, organism-based; settings: dose 2-32 µg/ml
Nakaseomyces glabratus [15] = experiment: Inhibition of matured biofilm in Candida glabrata 0161 at 2 to 32 microg/ml incubated for 24 hrs by XTT reagent based assay; assay type: functional, organism-based; settings: dose 2-32 µg/ml
Cryptococcus neoformans [16] = experiment: Inhibition of capsule formation in Cryptococcus neoformans H99 at 4 microg/ml incubated for 24 hrs by light microscopic analysis; assay type: functional, organism-based; settings: dose 4.0 µg/ml
Cryptococcus neoformans [17] = experiment: Inhibition of capsule formation in Cryptococcus neoformans H99 at 8 microg/ml incubated for 24 hrs by light microscopic analysis; assay type: functional
Cryptococcus neoformans [18] = experiment: Inhibition of melanin production in Cryptococcus neoformans H99 at 0.125 microg/ml by photographic analysis relative to control; assay type: functional
Cryptococcus neoformans [19] = experiment: Induction of morphological changes in Cryptococcus neoformans H99 assessed as cell wall damage at 4 microg/ml incubated for 8 hrs by transmission electron microscopic analysis; assay type: functional, organism-based; settings: dose 4.0 µg/ml
Cryptococcus neoformans [20] = experiment: Induction of ROS accumulation in Cryptococcus neoformans H99 assessed as increase in intracellular ROS level by measuring intense green fluorescence at 4 microg/ml incubated for 24 hrs by DCFH-DA probe based fluorescence microscopic analysis; assay type: functional, organism-based; settings: dose 4.0 µg/ml
Cryptococcus neoformans [21] = experiment: Upregulation of CAT1 gene expression in Cryptococcus neoformans H99 at 4 microg/ml incubated for 8 hrs by qRT-PCR analysis; assay type: functional; settings: dose 4.0 µg/ml
Cryptococcus neoformans [22] = experiment: Upregulation of TSA1 gene expression in Cryptococcus neoformans H99 at 4 microg/ml incubated for 8 hrs by qRT-PCR analysis; assay type: functional; settings: dose 4.0 µg/ml
Nakaseomyces glabratus [23] = experiment: Upregulation of GPX1 gene expression in Candida glabrata 0161 incubated for 8 hrs by qRT-PCR analysis; assay type: functional
Nakaseomyces glabratus [24] = experiment: Upregulation of TSA1 gene expression in Candida glabrata 0161 incubated for 8 hrs by qRT-PCR analysis; assay type: functional
Nakaseomyces glabratus [25] = experiment: Upregulation of TRX1 gene expression in Candida glabrata 0161 incubated for 8 hrs by qRT-PCR analysis; assay type: functional
Cryptococcus neoformans [26] = experiment: Antifungal activity against Cryptococcus neoformans H99 assessed as inhibition of fungal growth by measuring fold increase in MIC in presence of Fe(III) ion; assay type: functional
Cryptococcus neoformans [27] = experiment: Antifungal activity against Cryptococcus neoformans H99 assessed as inhibition of fungal growth in presence of 1 to 10 microg/ml Fe(II) ion; assay type: functional, organism-based
Cryptococcus neoformans [28] = experiment: Antifungal activity against Cryptococcus neoformans H99 assessed as inhibition of fungal growth in presence of 1 to 10 microg/ml Fe(III) ion; assay type: functional, organism-based
Nakaseomyces glabratus [29] = experiment: Antifungal activity against Candida glabrata 0161 assessed as inhibition of fungal growth in presence of Fe(II) ion; assay type: functional, organism-based
Nakaseomyces glabratus [30] = experiment: Antifungal activity against Candida glabrata 0161 assessed as inhibition of fungal growth in presence of Fe(III) ion; assay type: functional, organism-based
Nakaseomyces glabratus [31] = experiment: Antifungal activity against Candida glabrata 0161 assessed as inhibition of fungal growth in presence of 10% serum containing transferrin-bound ferric iron and free iron; assay type: functional, organism-based
Nakaseomyces glabratus [32] = experiment: Antifungal activity against Candida glabrata 0161 infected in candidiasis female ICR mouse model assessed as reduction in fungal burden in kidney at 20 mg/kg, po pre-infected with fungi for 3 hrs followed by compound administration and measured after 5 days; assay type: functional, organism-based; settings: time 5.0 day
Cryptococcus neoformans [33] = experiment: Antifungal activity against Cryptococcus neoformans H99 infected in cryptococcosis female ICR mouse model assessed as reduction in fungal burden in brain at 20 mg/kg, po pre-infected with fungi for 3 hrs followed by compound administration and measured after 5 days; assay type: functional, organism-based; settings: time 5.0 day
Nakaseomyces glabratus [34] = experiment: (§1) Antifungal activity against Candida glabrata 0161 infected in candidiasis female ICR mouse model assessed as reduction in fungal burden in kidney at 20 mg/kg, ip pre-infected with fungi for 3 hrs followed by compound administration and measured after 5 days; assay type: functional; settings: time 5 day
Cryptococcus neoformans [35] = experiment: Antifungal activity against Cryptococcus neoformans H99 infected in cryptococcosis female ICR mouse model assessed as reduction in fungal burden in brain at 20 mg/kg, ip pre-infected with fungi for 3 hrs followed by compound administration and measured after 5 days; assay type: functional, organism-based; settings: time 5.0 day
Nakaseomyces glabratus [36] = experiment: as §1, with “tight arrangement of renal tubular epithelial cells” for “reduction in fungal burden in kidney”, “days by H and E staining based analysis” for “days”; assay type: functional, organism-based; settings: time 5.0 day
Nakaseomyces glabratus [37] = experiment: as §1, with “detachment of renal tubular epithelial cells” for “fungal burden in kidney”, “days by H and E staining based analysis” for “days”; assay type: functional, organism-based; settings: time 5.0 day
Cryptococcus neoformans [38] = experiment: Antifungal activity against Cryptococcus neoformans H99 infected in cryptococcosis female ICR mouse model assessed as reduction in cytoplasmic loosening at 20 mg/kg, ip pre-infected with fungi for 3 hrs followed by compound administration and measured after 5 days by H and E staining based analysis; assay type: functional, organism-based; settings: time 5.0 day

## Nc1cc(=O)n(C(=S)Nc2ccc(C3CCCCC3)cc2)[nH]1
[1]
  half-life: 2.12 h
[2]
  AUC(0-t) at 24 h: 2040 ng·h/mL
[3]
  Tmax: 0.25 h
[4]
  AUC(0-inf): 4740 ng·h/mL
[Candida] auris
  Activity: Active
Nakaseomyces glabratus [5]
  MIC80: 1.2 10^-4 ug/ml
Nakaseomyces glabratus [6]
  MIC80: 1.2 10^-4 ug/ml
[7]
  IC50 at 48 h: 13.9 µg/mL (≈ 44 µM)
Nakaseomyces glabratus [8]
  inhibition at 0.13 µg/mL: 100%
Nakaseomyces glabratus [9]
  MFC: 2 µg/mL (≈ 6.32 µM)
Nakaseomyces glabratus [10]
  Activity: Moderate_effect
Nakaseomyces glabratus [11]
  Activity: Active
Cryptococcus neoformans [12]
  Activity: Active
Nakaseomyces glabratus [13]
  inhibition (INH): ~100%
Nakaseomyces glabratus [14]
  inhibition: Moderate_effect
Nakaseomyces glabratus [15]
  inhibition: Moderate_effect
Cryptococcus neoformans [16]
  inhibition: Active
Cryptococcus neoformans [17]
  inhibition at 8 µg/mL: 100%
Cryptococcus neoformans [18]
  inhibition at 0.125 µg/mL: 100%
Cryptococcus neoformans [19]
  Activity: inactive
Cryptococcus neoformans [20]
  Activity: Active
Cryptococcus neoformans [21]
  Activity: Active
Cryptococcus neoformans [22]
  Activity: Active
Nakaseomyces glabratus [23]
  Activity: Active
Nakaseomyces glabratus [24]
  Activity: Active
Nakaseomyces glabratus [25]
  Activity: Active
Cryptococcus neoformans [26]
  fold change (FC): ~1000
Cryptococcus neoformans [27]
  Activity: inactive
Cryptococcus neoformans [28]
  Activity: inactive
Nakaseomyces glabratus [29]
  Activity: inactive
Nakaseomyces glabratus [30]
  Activity: inactive
Nakaseomyces glabratus [31]
  Activity: inactive
Nakaseomyces glabratus [32]
  Activity: Active
Cryptococcus neoformans [33]
  Activity: Active
Nakaseomyces glabratus [34]
  Activity: 1.2 log10CFU/g
Cryptococcus neoformans [35]
  Activity: Active
Nakaseomyces glabratus [36]
  Activity: Active
Nakaseomyces glabratus [37]
  Activity: Active
Cryptococcus neoformans [38]
  Activity: Active
